{"source": "patent US6069128A", "about": "“Transiently membrane-permeable derivatives converted intracellularly into active peptides” (Universite Laval, priority 1998, dated 2000)", "test_system": "IL-8-induced leukocyte migration", "assay": "IL-8-induced leukocyte migration into the mouse air pouch", "type": "in vivo", "details": "BALBc mice; 100 μg peptide intravenously in the tail one hour before subdermal IL-8 (1 μg); leukocytes collected two and a half hours after IL-8", "experimental": "In the second series of experiments, inhibition of leukocyte migration in BALBc mice was chosen as an in vivo assay as a first step towards the use of the modified peptides in humans. 100 ug of the DRYLAIVHAT/AM peptide, diluted in cyclodextrane or polythelene glycol, was injected intravenously in the tails of BALBc mice one hour prior to the subdermal injection of IL-8. In the presence of the modified peptide, leukocyte migration was inhibited when compared to the migration observed in untreated animals (FIG. 4).\nIn FIG. 4, the peak increase in leukocyte migration induced by IL-8 is shown. The peptides (100 μg) (native or transformed) were injected intravenously in the tails of the BALBC mice one hour prior to IL-8 injection. The basal cell number was 0.25×10^6 cells and the increases represent the differences between the basal and the peak levels of the leukocytes collected two and a half hours after IL-8 stimulation. The data represent the mean ±SEM of the number of experiments indicated in parenthesis.", "note": "Where no end group is shown, it is not given here."}
{"substance": "DRYLAIVHAT/AM: acetoxymethyl ester (AM) membrane-permeable derivative of the peptide from the second intracellular loop of the interleukin 8 type A receptor (also: acetoxymethyl ester (AM) derivative)", "values": [{"measurement": "inhibition of leukocyte migration induced by IL-8", "value": "inhibited"}]}
